# Assays:
# [1] = test system: adults with idiopathic or diabetic gastroparesis; experiment: ANMS GCSI-DD total and subscale scores, protocol-specified scoring method, Phase 2a; format: in vivo, human; parameters: key to ANMS GCSI-DD total score, Day 14/EOT, mean / ANMS GCSI-DD nausea/vomiting subscale score, Day 14/EOT, mean / ANMS GCSI-DD postprandial fullness/early satiety subscale score, Day 14/EOT, mean / ANMS GCSI-DD bloating subscale score, Day 14/EOT, mean: symptoms rated 0 (none) to 4 (very severe)
# Procedure: Subjects were Evaluated as Follows: • Days −28 to −11: Screening procedures were performed. The ANMS GCSI-DD questionnaire was completed daily for at least 14 days prior to randomization (Day 1); • Days −10 to −3: The ANMS GCSI-DD questionnaire was completed daily. A GEBT was performed on a single day within this window, with breath samples obtained twice prior to consumption of a standardized, carbon-13 (^13C)-enriched meal and then at 45, 90, 120, 150, 180, and 240 minutes after meal consumption after an 8-hour fast. […] On Day 14 (±2 days), the PAGI-SYM and Clinical Grading Assessment questionnaires were completed prior to the final dose of study drug. • A GEBT was administered 30 minutes after study drug administration on Day 14 (±2 days). Breath samples were obtained twice prior to ^13C-enriched meal consumption and then at 45, 90, 120, 150, 180, and 240 minutes after meal consumption after an 8-hour fast. If a subject withdrew from the study prior to the Day 14 (±2 days) GEBT, attempts should have been made to perform a GEBT on the last day of study drug administration. Clinical Grading Assessment Scales were also performed.
# The ANMS GCSI-DD covers 5 core relevant symptoms of gastroparesis: nausea, early satiety, postprandial fullness, upper abdominal pain, and vomiting. Bloating is included as an exploratory symptom. Symptoms are rated on a severity numeric response scale from 0 (none) to 4 (very severe). Vomiting is captured on a frequency response scale and scored as follows: 0 for no episodes, 1 for 1 episode, 2 for 2 episodes, 3 for 3 episodes, and 4 for 4 or more episodes. Subjects were asked to recall symptoms over the previous 24 hours and complete the ANMS GCSI-DD patient-reported symptom questionnaire for at least 14 days prior to randomization, on the day of randomization, and daily from Days 1 to 14 (±2 days).
# [2] = test system: heart rate in healthy subjects; experiment: Thorough QT study, placebo-corrected change-from-baseline HR (ΔΔHR); format: in vivo, human; conditions: for ΔΔHR LS Mean: 0.5 H Post Dose
compound,measurement,setting,value
"[2H]c1c([2H])c([2H])c2c([nH]c(=O)n2CCCN2CCC(n3c(=O)[nH]c4cc(Cl)ccc43)CC2)c1[2H] [Deudomperidone, 1-{3-[4-(5-chloro-2-oxo-2,3-dihydro-1H-1,3-benzodiazol-1-yl)piperidin-1yl]propyl}-2,3-dihydro(4,5,6,7-D4)-1H-1,3-benzodiazol-2-one]","ANMS GCSI-DD bloating subscale score, Day 14/EOT, mean","[1]; 5 mg BID, Cohort 3, ITT",2.33
same,"ANMS GCSI-DD bloating subscale score, change from baseline to Day 14/EOT","[1]; 5 mg BID, Cohort 3, ITT",−0.37
same,"ANMS GCSI-DD bloating subscale score, percent change from baseline to Day 14/EOT","[1]; 5 mg BID, Cohort 3, ITT",−16.16%
same,"ANMS GCSI-DD nausea/vomiting subscale score, Day 14/EOT, mean","[1]; 5 mg BID, Cohort 3, ITT",1.00
same,"ANMS GCSI-DD nausea/vomiting subscale score, change from baseline to Day 14/EOT","[1]; 5 mg BID, Cohort 3, ITT",−0.52
same,"ANMS GCSI-DD nausea/vomiting subscale score, percent change from baseline to Day 14/EOT","[1]; 5 mg BID, Cohort 3, ITT",−41.08%
same,"ANMS GCSI-DD postprandial fullness/early satiety subscale score, Day 14/EOT, mean","[1]; 5 mg BID, Cohort 3, ITT",2.00
same,"ANMS GCSI-DD postprandial fullness/early satiety subscale score, change from baseline to Day 14/EOT","[1]; 5 mg BID, Cohort 3, ITT",−0.78
same,"ANMS GCSI-DD postprandial fullness/early satiety subscale score, percent change from baseline to Day 14/EOT","[1]; 5 mg BID, Cohort 3, ITT",−29.47%
same,"ANMS GCSI-DD total score, Day 14/EOT, mean","[1]; 5 mg BID, Cohort 3, ITT",1.78
same,"ANMS GCSI-DD total score, change from baseline to Day 14/EOT","[1]; 5 mg BID, Cohort 3, ITT",−0.56
same,"ANMS GCSI-DD total score, percent change from baseline to Day 14/EOT","[1]; 5 mg BID, Cohort 3, ITT",−26.84%
same,"ANMS GCSI-DD bloating subscale score, Day 14/EOT, mean","[1]; 10 mg BID, Cohort 1, ITT",1.76
same,"ANMS GCSI-DD bloating subscale score, change from baseline to Day 14/EOT","[1]; 10 mg BID, Cohort 1, ITT",−1.08
same,"ANMS GCSI-DD bloating subscale score, percent change from baseline to Day 14/EOT","[1]; 10 mg BID, Cohort 1, ITT",−41.78%
same,"ANMS GCSI-DD nausea/vomiting subscale score, Day 14/EOT, mean","[1]; 10 mg BID, Cohort 1, ITT",0.74
same,"ANMS GCSI-DD nausea/vomiting subscale score, change from baseline to Day 14/EOT","[1]; 10 mg BID, Cohort 1, ITT",−0.89
same,"ANMS GCSI-DD nausea/vomiting subscale score, percent change from baseline to Day 14/EOT","[1]; 10 mg BID, Cohort 1, ITT",−52.41%
same,"ANMS GCSI-DD postprandial fullness/early satiety subscale score, Day 14/EOT, mean","[1]; 10 mg BID, Cohort 1, ITT",1.71
same,"ANMS GCSI-DD postprandial fullness/early satiety subscale score, change from baseline to Day 14/EOT","[1]; 10 mg BID, Cohort 1, ITT",−1.16
same,"ANMS GCSI-DD postprandial fullness/early satiety subscale score, percent change from baseline to Day 14/EOT","[1]; 10 mg BID, Cohort 1, ITT",−41.38%
same,"ANMS GCSI-DD total score, Day 14/EOT, mean","[1]; 10 mg BID, Cohort 1, ITT",1.40
same,"ANMS GCSI-DD total score, change from baseline to Day 14/EOT","[1]; 10 mg BID, Cohort 1, ITT",−1.04
same,"ANMS GCSI-DD total score, percent change from baseline to Day 14/EOT","[1]; 10 mg BID, Cohort 1, ITT",−43.64%
same,"ANMS GCSI-DD bloating subscale score, Day 14/EOT, mean","[1]; 20 mg QD, Cohort 2, ITT",1.47
same,"ANMS GCSI-DD bloating subscale score, change from baseline to Day 14/EOT","[1]; 20 mg QD, Cohort 2, ITT",−1.40
same,"ANMS GCSI-DD bloating subscale score, percent change from baseline to Day 14/EOT","[1]; 20 mg QD, Cohort 2, ITT",−51.82%
same,"ANMS GCSI-DD nausea/vomiting subscale score, Day 14/EOT, mean","[1]; 20 mg QD, Cohort 2, ITT",0.40
same,"ANMS GCSI-DD nausea/vomiting subscale score, change from baseline to Day 14/EOT","[1]; 20 mg QD, Cohort 2, ITT",−1.20
same,"ANMS GCSI-DD nausea/vomiting subscale score, percent change from baseline to Day 14/EOT","[1]; 20 mg QD, Cohort 2, ITT",−67.94%
same,"ANMS GCSI-DD postprandial fullness/early satiety subscale score, Day 14/EOT, mean","[1]; 20 mg QD, Cohort 2, ITT",1.37
same,"ANMS GCSI-DD postprandial fullness/early satiety subscale score, change from baseline to Day 14/EOT","[1]; 20 mg QD, Cohort 2, ITT",−1.38
same,"ANMS GCSI-DD postprandial fullness/early satiety subscale score, percent change from baseline to Day 14/EOT","[1]; 20 mg QD, Cohort 2, ITT",−50.14%
same,"ANMS GCSI-DD total score, Day 14/EOT, mean","[1]; 20 mg QD, Cohort 2, ITT",1.08
same,"ANMS GCSI-DD total score, change from baseline to Day 14/EOT","[1]; 20 mg QD, Cohort 2, ITT",−1.33
same,"ANMS GCSI-DD total score, percent change from baseline to Day 14/EOT","[1]; 20 mg QD, Cohort 2, ITT",−55.24%
same,ANMS GCSI-DD total score and all subscale scores at Day 14/End of Treatment,"[1]; all deudomperidone treatment groups, placebo also decreased",decreased from baseline
same,bradycardic outliers,"[2]; 30 mg treatment group, at 5 time points",1
same,ΔΔHR LS Mean,[2]; 30 mg CIN-102 (Treatment A),−0.5 bpm
same,ΔΔHR LS Mean,[2]; 100 mg CIN-102 (Treatment B),−0.5 bpm

# — US20250268884A1, “Deuterated Domperidone for Treating Gastroparesis” (CinDome Pharma, Inc., priority 2022, published 2025)
